Target: T1, 5-hydroxytryptamine receptor 1A (Homo sapiens, UniProt P08908)
T1 sequence (P08908 whole entry): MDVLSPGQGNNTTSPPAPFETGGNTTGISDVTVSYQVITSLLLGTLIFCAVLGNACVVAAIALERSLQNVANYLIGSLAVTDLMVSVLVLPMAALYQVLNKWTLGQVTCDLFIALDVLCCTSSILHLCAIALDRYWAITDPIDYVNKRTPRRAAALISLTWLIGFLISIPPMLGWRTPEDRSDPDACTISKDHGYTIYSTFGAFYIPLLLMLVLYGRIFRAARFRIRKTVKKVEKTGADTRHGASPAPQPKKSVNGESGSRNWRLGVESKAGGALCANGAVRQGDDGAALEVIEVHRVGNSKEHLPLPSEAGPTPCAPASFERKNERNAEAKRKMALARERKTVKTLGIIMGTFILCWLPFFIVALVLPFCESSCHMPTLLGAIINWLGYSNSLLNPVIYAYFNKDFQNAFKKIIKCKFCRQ
Assay: Displacement of [3H]8-OH-DPAT from 5HT1A receptor by vacuum filtration

Ki: > 100 µM
Compound: COc1cc(-c2oc3cc(O)cc(=O)c-3c(O)c2O[C@@H]2O[C@H](CO)[C@H](O)[C@H](O)[C@H]2O)ccc1O [isohamnetin 3-O-galactoside]

From BindingDB's records for doi:10.1021/np960678l (1997)
